According to US9486447B2, “Compositions and methods for controlling neuronal excitation” (The General Hospital Corporation, priority 2011, dated 2016):

Key:
adult zebrafish = experiment: 405 nm laser illumination of adult and spinalized zebrafish; assay type: in vivo
Description: Optovin's capacity to function in intact adult animals will impact its suitability for future clinical and research applications. Thus, the effects of 405 nm laser illumination on optovin-treated adult zebrafish were analyzed. […] To determine if fin contraction was voluntary or involuntary, the experiment was repeated using spinalized preparations. Optical control of dorsal fin contraction was preserved in spinalized animals treated with optovin (data not shown). Furthermore, carefully controlled laser illumination of specific regions along the body of spinalized zebrafish produced specific dorsal, ventral, and lateral tail movements reminiscent of those used by intact fish during swimming (data not shown). Because zebrafish TRPA1 is primarily expressed in sensory neurons, these contractions and swimming behaviors likely occur via activation of spinal reflex arcs.
Adult zebrafish (0.5-1.5 years) were briefly anesthetized in ice water and quickly decapitated with a sharp razor blade. Spinalized preparations were incubated in optovin (50 μM) for 1-2 min prior to testing with laser light stimuli (405 nm, 400 μW mm−2).

[1] = Crossing of the epidermis after topical application; assay type: in vivo, human; details: humans as well as zebrafish
Excerpt: As described herein, photo-sensitive TrpA1 agonists can be bioavailable. […] In some embodiments, a photo-sensitive TrpA1 agonist can be bioavailable when administered systemically. […] In some embodiments, oral administration of a photo-sensitive TrpA1 agonist can be considered for any method described herein.
Photo-sensitive TrpA1 agonists described herein can be administered by any delivery method known in the art, including but not limited to, injection; parenteral, intravenous, intramuscular, subcutaneous, transdermal, airway (aerosol), pulmonary, direct application, microsurgery, endoscopic surgery, topically, orally, vaginally and/or by contact with the gastro-intestinal lumen. […] This would agonist to all, or at least a variety of tissues, depending e.g. upon design/modification of the agonist to limit or expand systemic bioavailability such that electromagnetic radiation applied to any desired location would be expected to activate neuronal activity at the site of irradiation. In some embodiments, the photo-sensitive TrpA1 agonist can be administered systemically. In some embodiments, the photo-sensitive TrpA1 agonist can be administered locally.

[2] = tested on: larvae and adult zebrafish; experiment: Long-term toxicity testing in zebrafish; assay type: in vivo
Description: Optovin is a rhodanine-containing small molecule with no previously annotated biological activity (FIG. 1D). […] Motor behavior in optovin-treated animals is elicited by radiation stimulus intensitites greater than 1.6 μW/mm^2 (FIG. 1G). […] To determine the long-term effects of optovin exposure on development, behavior and survival, the development, behavior and survival of larvae and adult zebrafish exposed to optovin (10 μM) for 96 hours were analyzed. […] Thus, optovin is a novel behavior-modifying compound that causes rapid and reversible motor excitation in response to violet light stimuli.
To determine the long-term effects of optovin exposure on development, behavior and survival, the development, behavior and survival of larvae (n=150) and adult zebrafish (n=2) exposed to 10 μM optovin for 96 hours was analyzed.

With Cc1cc(/C=C2/SC(=S)NC2=O)c(C)n1-c1cccnc1 [optovin] the “dorsal fin response to 405 nm laser illumination” value (adult zebrafish; intact adult zebrafish) was “rapid and reversible contraction of the fin”, the “optical control of dorsal fin contraction” value (adult zebrafish; spinalized animals) was “preserved” and the “crossing the epidermis to reach underlying muscles at an effective concentration” value [1] was “able to cross the epidermis”. The “differences in appearance, touch response, heart rate, fin movements, morphology or percentage survival vs untreated” value ([2]; 10 μM for 96 hours, larvae and adult zebrafish) was “No differences were identified”, the survival rates ([2]; 10 μM, larval or adult zebrafish) was “does not affect survival rates” and the signs of toxicity ([2]; after 48 hours of treatment) was “No signs of toxicity were observed”.
